Common to all, as to assay: NCI tumour cell line growth inhibition, 48 h
The test system of assay [1] is RXF 393 renal.
Assay [2] deals with MDA-MB-231 breast.
Assay [3] deals with MCF7 breast.
The test system of assay [4] is SNB-19 CNS.
Assay [5] has as its system IGROV1 ovarian.
Assay [6] concerns OVCAR-4 ovarian.
Assay [7] has as its system HCC-2998 colon.
The subject of assay [8] is 786-0 renal.
The subject of assay [9] is NCI-H522 lung.
The subject of assay [10] is NCI/ADR-RES ovarian.

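Dose response: 5 concentrations. Exposure: 48 h. Format: 96-well plates. Endpoint: linear interpolation; highest concentration if not reached. The concentration for 50% growth inhibition is given as GI50. TGI: total growth inhibition.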

With `CCCc1nn(C)c2c(=O)[nH]c(-c3cc(S(=O)(=O)N4CCN(C)CC4)ccc3OCC)nc12`, the GI50 in assay [1] is more than 100 µM; in [2] it was more than 100 µM; in assay [3], more than 100 µM; in [4] it was more than 100 µM; in [5], 91.4 µM; in [6] it was more than 100 µM. The GI50 in assay [7], in assay [8], in [9] and in assay [10] was more than 100 µM throughout. Also, the TGI in [1], in assay [2], in assay [3], in assay [4], in assay [5] and in assay [6] was more than 100 µM each time. The TGI in [7], in assay [8], in assay [9] and in [10] was more than 100 µM throughout.

As for `CC(=O)O.CN1[CH-]N(Cc2ccc(C#N)cc2)c2ccccc21.[Ag+]`, the GI50 in assay [1] is 14 µM; in assay [2], 18.2 µM; in assay [3], 17.8 µM; in assay [4] it was 29.3 µM; in assay [5], 20.9 µM; in assay [6] it was 15.8 µM. Besides, the GI50 in assay [7] is more than 100 µM; in assay [8], 18.4 µM; in assay [9], 14.5 µM; in [10], more than 100 µM. Also, the TGI in assay [1] was 28.3 µM; in assay [2] it was 36 µM; in assay [3], 51.7 µM; in assay [4], more than 100 µM; in assay [5] it was 46.7 µM; in assay [6] it was 32.8 µM. Moreover, the TGI was more than 100 µM in assay [7], 36.7 µM in [8], 82.4 µM in assay [9] and more than 100 µM in assay [10].

On to `COc1cc(-c2nn(-c3cccc(NC(=O)Nc4ccc(Cl)c(C(F)(F)F)c4)c3)cc2-c2ccncc2)ccc1Cl`, for which the GI50 in [1] was 1.18 µM; in assay [2], 0.76 µM; in assay [3], 0.919 µM; in [4] it was 1.24 µM; in assay [5], 1.2 µM; in assay [6], 1.29 µM. In addition, the GI50 in assay [7] was 1.55 µM; in [8] it was 1.61 µM; in assay [9], 1.14 µM; in assay [10] it was 1.04 µM. The TGI was 6.29 µM in assay [1]; 2.6 µM in [2]; more than 32.5 µM in assay [3]; 9.24 µM in assay [4]; 4.22 µM in [5]; 25.6 µM in [6]. Further, the TGI in [7] was determined as 7.3 µM; in [8], 8.02 µM; in assay [9] it was 6.06 µM; in assay [10], 7.99 µM.

In the case of `COc1ccc2cc(-c3cnc4nonc4n3)ccc2c1`, the GI50 is 1.26 µM in [1]; 14.1 µM in assay [2]; 0.415 µM in [3]; 4.37 µM in [4]; 15.3 µM in assay [5]; 5.99 µM in assay [6]. Besides, the GI50 was 2.32 µM in assay [7], 4.17 µM in assay [8], 1.29 µM in assay [9] and 1.32 µM in [10]. Also, the TGI in assay [1] is 7.31 µM; in [2] it was more than 100 µM; in assay [3], more than 100 µM; in [4], more than 100 µM; in [5], more than 100 µM; in assay [6] it was more than 100 µM. The TGI in [7], in assay [8], in [9] and in assay [10] was more than 100 µM each time.

Regarding `CSc1cc([C@@H]2C[C@H]2c2ccc(Cl)cc2)on1`, the GI50 was 2.14 µM in assay [1]; 5.51 µM in assay [2]; 16.3 µM in assay [3]; 27.4 µM in assay [4]; 14.8 µM in assay [5]; 31.3 µM in assay [6]. For the same compound, the GI50 in assay [7] is 1.25 µM; in assay [8] it was 15 µM; in assay [9] it was 6.91 µM; in assay [10], 13.6 µM. Besides, the TGI in assay [1] was 12.6 µM; in assay [2], 21.7 µM; in [3] it was 41 µM; in assay [4], more than 100 µM; in [5], more than 100 µM; in [6], more than 100 µM. Moreover, the TGI turned out to be 15 µM in [7], 55.3 µM in [8], 45.9 µM in assay [9] and 42.4 µM in [10].

In the case of `OC1CC2CCC(C1)N2CCCN1c2ccccc2Sc2ccc(Cl)cc21` (stereo not given), the TGI worked out at 4.04 µM in assay [1]; 3.66 µM in [2]; 3.3 µM in assay [3]; 13.5 µM in [4]; 5.01 µM in assay [5]; 13.6 µM in [6]. Further, the TGI worked out at 0.959 µM in assay [7], 3.54 µM in assay [8], 4.19 µM in assay [9] and 6.32 µM in assay [10].

In the case of `COc1ccccc1C#Cc1ccccc1C#Cc1ccc(OCCCCCCOc2ccccc2C#Cc2ccccc2C#Cc2ccccc2OC)cc1`, the GI50 in [1], in [2], in assay [3], in [4], in assay [5] and in assay [6] was more than 100 µM throughout. Moreover, the GI50 in [7], in assay [8], in [9] and in assay [10] was more than 100 µM throughout. Also, the TGI in assay [1], in assay [2], in [3], in [4], in [5] and in [6] was more than 100 µM in each case. Besides, the TGI in assay [7], in assay [8], in assay [9] and in assay [10] was more than 100 µM throughout.
